Source: US10105380B2, “Glycoclusters and their pharmaceutical use as antibacterials” (priority 2013, dated 2018)
In brackets after ≈: the same amount, converted by molar mass. Like-named read-outs stand apart in the source and are kept apart here.

Tests used:
PA-IL [1] = molecular target: T1, PA-IL (Pseudomonas aeruginosa, UniProt Q05097); test: Surface Plasmon Resonance (SPR) inhibition; assay type: binding
Protocol: (§1) The binding of PA-IL to galactoclusters was probed as the ability of the clusters to inhibit the binding of PA-IL to rabbit erythrocytes (Hemagglutination inhibition assay, HIA) or to surface bound galactosyl modified polyacrylamide either by Surface Plasmon Resonance (SPR), Enzyme Linked Assay (ELLA) Inhibition was measured with competitive assays. In HIA experiments, the minimal inhibitory concentration (MIC) is the minimal concentration of galactocluster that inhibit the hemagglutination of rabbit erythrocytes in presence of the lectin. The lower the MIC the highest is the binding of the galactocluster to the lectin. SPR and ELLA were used to determine the IC50 value. […] The lower the IC50 value as determined by SPR (^SPRIC50) and ELLA (^ELLAIC50), the higher is the binding of PA-IL to the galactocluster.
SPR inhibition experiments were performed using a Biacore 3000 instrument at 25° C. Measurements were carried out on two channels with two immobilized sugars: α-L-fucose (channel 1) and α-D-galactose (channel 2). Immobilization of sugars was performed at 25° C. using running buffer (HBS) at […]. Immobilization on each channel (CM5 Chip) was performed independently as follows. First, the channel was activated by injecting a fresh mixture of EDC/NHS (35 μL, 420 s). Then a solution of streptavidin ([…] in 0.1 mM AcONa pH 5 buffer) was injected (50 μL, 600 s). The remaining reactive species were quenched by injecting ethanolamine (1M, 35 μL, 420 s) into the solution. Finally, a solution of the desired biotinylated-polyacrylamide-sugar (lectinity, […]) was coated onto the surface (50 μL, 600 s) through streptavidin-biotin interaction. […] Inhibition studies consisted of the injection (150 μL, 10 μL·min^−1, dissociation 120 s) of incubated (>1 h, RT) mixtures of PAIL ([…]) and various concentrations of inhibitor (twofold cascade dilutions). […] The CM5 chip was fully regenerated by successive injections of d-galactose (2×30 μL, 100 mm in running buffer). Binding was measured as RU over time after blank subtraction, and data were then evaluated using the BIAevaluation Software version 4.1. For IC50 evaluation, the response (Req-fitted) was considered to be the amount of lectin bound to the carbohydrate-coated surface at equilibrium in the presence of a defined concentration of inhibitor. Inhibition curves were obtained by plotting the percentage of inhibition against the inhibitor concentration (on a logarithmic scale) by using Origin 7.0 software (OriginLab Corp.), and IC50 values were extracted from sigmoidal fit of the inhibition curve.
Microtiter plates were modified with PAA-galactose. […] The lowest the IC50 as determined the strongest is the binding of the studied molecule to PA-IL. […]

PA-IL [2] = molecular target: T1, PA-IL; test: Hemagglutination inhibition assay (HIA), rabbit erythrocytes; assay type: cell-based; conditions: for MIC: minimal inhibitory concentration of hemagglutination, PA-IL 3 μM; for βAr: ratio of MIC of Gal-OArNO2 over MIC of the molecule; for βMe: ratio of MIC of Gal-OMe over MIC of the molecule
Protocol: as §1
Hemagglutination inhibition assays (HIA) were performed in U-shaped 96-well microtitre plates. Rabbit erythrocytes were purchased from Biomérieux and used without further washing. Erythrocytes were diluted to a 8% solution in NaCl (100 mM). PA-IL solutions of 3 μM were prepared in TRIS-HCl 20 mM (TRIS=tris(hydroxymethyl)aminomethane), NaCl 100 mM, and CaCl2 100 mM. The hemagglutination unit (HU) was first obtained by addition of the 4% erythrocyte solution (50 μL) to aliquots (50 μL) of sequential (twice) lectin dilutions. The mixture was incubated at 25° C. for 30 min. The HU was measured as the minimum lectin concentration required to observe hemagglutination. For the following lectin-inhibition assays, lectin concentrations of 4 HU were used. […] Subsequent inhibition assays were then carried out by the addition of lectin solution (25 μL, at the required concentration) to sequential dilutions (50 μL) of glycoclusters, monomer molecules, and controls. These solutions were incubated at 37° C. for 30 min, then 8% erythrocyte solution (25 μL) was added, followed by an additional incubation at 37° C. for 1 h. The minimum inhibitory concentration for each molecule was determined for each duplicate.

PA-IL [3] = molecular target: T1, PA-IL; test: Enzyme Linked Lectin Assay (ELLA), PAA-galactose coated plates; assay type: binding
Protocol: as §1
96-Well microtiter plates (NuncMaxisorb) were coated with α-PAA-Gal(PAA=polyacrylamide) for PA-IL (Lectinity Holding, Inc.): 100 μL of 5 μg·mL^−1 in carbonate buffer, pH 9.6 for 1 h at 37° C., then blocking at 37° C. for 1 h with 100 μL per well of 3% (w/v) bovine serum albumin (BSA) in phosphate buffer solution (PBS). Lectin solutions (75 μL) were diluted (1:2) starting from 30 μg·mL^−1. After 1 h incubation at 37° C. and three washes with T-PBS (PBS that contained 0.05% Tween 20), horseradish peroxidase (HRP)-streptavidin conjugate (100 μL; dilution 2:8000; Boehringer-Mannheim) was added and left for 1 h at 37° C. Coloration was developed by using 100 μL per well of 0.05% phosphate/citrate buffer that contained o-phenylenediaminedihydrochloride ([…]) and urea hydrogen peroxide (0.4 mg·mL^−1) (OPD kit, Sigma-Aldrich) for 15 min and stopped with sulfuric acid (50 μL, 30%). Absorbance was then read at 490 nm using a microtiter plate reader (BioRad 680). The concentration of biotinylatedlectins was determined by plotting the relative absorbance versus lectin concentration. The concentration that led to the highest response in the linear area was selected as the standard lectin concentration for the subsequent inhibition experiments.
Microtiter plates were modified with PAA-galactose. Slides were incubated with increasing concentration of galactosylated ligands. […] The lowest the IC50 as determined the strongest is the binding of the studied molecule to PA-IL. ELLA: This IC50 will be referred here after ^ELLAIC50. SPR: This IC50 will be referred here after ^SPRIC50.

PA-IL [4] = molecular target: T1, PA-IL; assay type: binding; conditions: potency in respect with GalOMe (ITC Kd)
Protocol: Recombinant lyophilized PA-IL was dissolved in buffer (0.1 M TRIS-HCl, 6 μM CaCl2, pH 7.5) and degassed. […] ITC was performed using a VP-ITC MicroCalorimeter from MicroCal Incorporated. PA-IL was placed into the1.4478 mL sample cell, at 25° C. Titration was performed with 10 μL injections of carbohydrate ligands every 300 s. Data were fitted using the “one-site model” using MicroCal Origin 7 software according to standard procedures. Fitted data yielded the stoichiometry (n), the association constant (Ka), and the enthalpy of binding (ΔH). Other thermodynamic parameters (i.e., changes in free energy ΔG and entropy ΔS) were calculated from the equation ΔG=ΔH−TΔS=−RTlnKa in which T is the absolute temperature and R=8.314 J·mol^−1·K^−1. Two or three independent titrations were performed for each ligand tested.

PA-IL [5] = molecular target: T1, PA-IL; test: Kd determination on DDI microarray (Langmuir isotherm, Scatchard plot); assay type: binding
Protocol: The methodologies for Kd and IC50 value determination have been previously reported (Gerland, B. et al., (2012) Bioconjugate Chem. 23, 1534-1547; Zhang, J. et al., (2009) Chem. Comm., 6795-6797; Zhang, J. et al., (2009) Biosens. Bioelectron. 24, 2515-2521).
CaCl2 (1 μg/mL final concentration) was added. PA-IL at the desired final concentration was then added. 2 μL of each solution (corresponding to the desired PA-IL concentration) were poured in the corresponding microwells. The slide was incubated (3 h, 37° C.) in a water vapor saturated chamber and finally washed in PBS-Tween 20 (0.02%, 5 min, 4° C.) and dried. A Microarray scanner, GenePix 4100A software package (Axon Instruments; λex 532/635 nm and λem 575/670 nm) was used for fluorescent imaging of both fluorophore (Cy3 and Alexa 647). The average of the mean fluorescence signal was calculated from eight spots. The resulting Langmuir Isotherms were linearised using Scatchard plot to give the Kd values at the ordonnate intercept.

PA-IL [6] = molecular target: T1, PA-IL; assay type: binding; conditions: for Potency vs EG3-O-Gal: ratio of IC50Lac to mono EG3-O-galactose (entry 1); for Potency vs AcNPhe-O-Gal: ratio of IC50Lac to mono-aromatic galactose 31 (entry 2); for β: Table 6, relative potency vs monovalent ligand 31
Protocol: IC50 Determination with “on Chip” Biological Recognition
Lectin PA-IL (0.12 μM final concentration), BSA (2% final concentration) and CaCl2 (1 μg/mL final concentration) was diluted in PBS1× (pH=7.4). In each micro tube was added the inhibitor lactose at the desired final concentration (0; 1.10^−5; 1.10^−4; 5.10^−4; 1.10^−3; 5.10^−3; 1.10^−2; 5.10^−2; 0.1; 1; 5; 10; 50; 10^2; 5.10^2; 10^3; 5.10^3; 10^4; 10^5; 3.10^5).
2 μL of each solution were deposited in the corresponding microwells and the slide was incubated at 37° C. in a water vapor saturated chamber for 3 h. The washing steps are: PBS-Tween0.2% 5 min at 4° C., then briefly in deionized water and dried by centrifugation.
Slide was scanned at 532 nm then at 635 nm with the Microarray scanner, GenePix 4100A software package (Axon Instruments; λex 532/635 nm and λem 575/670 nm). The fluorescence signal of each conjugate was determined as the average of the mean fluorescence signal of sixty-four spots.
IC50 values were determined using “BioDataFit 1.02 program”. The model chosen was “Sigmoidal”: Y=a+(b−a)/[1+10^(x−c)]
with a=FImin, b=FImax, x=[…] and c=log(IC50). FImin/max is the minimum/maximum Alexa-647 fluorescence signal observed for a galactomimetic.
So the IC50 value was called IC50Lac.

PA-IL [7] = molecular target: T1, PA-IL; test: DDI glycoarray, direct fluorescence scanning with Alexa647-PA-IL; assay type: binding; conditions: result in words
[8] = IC50 of Gal-ArNO2 over IC50 of the molecule
[9] = IC50 of Gal-OMe over IC50 of the molecule
[10] = DNA-tagged galactoclusters G1-G24 on glycoarray
[11] = DNA-tagged galactoclusters G1-G24 on glycoarray, read-out: IC50
[12] = lactose concentration required to displace 50% of PA-IL from the glycocluster, higher = better binding, read-out: IC50Lac
[13] = text b577, microarray, Langmuir isotherm

T1 sequence (Q05097 2-122): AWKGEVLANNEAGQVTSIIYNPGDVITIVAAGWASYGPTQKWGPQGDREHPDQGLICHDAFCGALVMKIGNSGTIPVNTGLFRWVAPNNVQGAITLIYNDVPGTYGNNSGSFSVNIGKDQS

Compound: O=[N+]([O-])c1ccc(O[C@@H]2O[C@H](CO)[C@H](O)[C@H](O)[C@H]2O)cc1 [Gal-ArNO2, 1-O-p-nitrophenyl-β-D-galactoside]
- IC50 (PA-IL [1]): 6.7 µM
- SPR βAr (PA-IL [1]; [8]): 1.0
- SPR βMe (PA-IL [1]; [9]): 7.3
- MIC (PA-IL [2]): 2.0 mM (≈ 603 µg/mL)
- βAr (PA-IL [2]): 1.0
- βMe (PA-IL [2]): 8.0
- IC50 (PA-IL [3]): 33 µM
- ELLA βAr (PA-IL [3]; [8]): 1.0
- ELLA βMe (PA-IL [3]; [9]): 5.5

Compound: CO[C@@H]1O[C@H](CO)[C@H](O)[C@H](O)[C@H]1O [Gal-OMe, 1-O-Methyl-β-D-galactoside]
- βMe (PA-IL [4]): 1
- MIC (PA-IL [2]): 16 mM (≈ 3110 µg/mL)
- βAr (PA-IL [2]): 0.13
- βMe (PA-IL [2]): 1.0

Compound: Man(EG2MTzAcNPhe-CH2-SGal)4 [G13]
- Kd (PA-IL [5]; [10]): 0.085 µM
- IC50 (PA-IL [6]; [11]): 12000 µM

Compound: Man(EG2MTzproNCOBisphe-OGal)4 [G17]
- Kd (PA-IL [5]; [10]): 0.02 µM

Compound: Man(EG2MTzproNCONapht-OGal)4 [G21]
- Kd (PA-IL [5]; [10]): 0.014 µM

Compound: Man(EG3MTzAcNPh-SGal)4 [G11]
- Kd (PA-IL [5]; [10]): 0.049 µM
- IC50 (PA-IL [6]; [11]): 63900 µM

Compound: Man(EG3MTzAcNPhe-CH2-Gal)4 [G7]
- Kd (PA-IL [5]; [10]): 0.085 µM
- IC50 (PA-IL [6]; [11]): 9100 µM

Compound: Man(EG3MTzAcNPhe-CH2-SGal)4 [G15]
- Kd (PA-IL [5]; [10]): 0.076 µM
- IC50 (PA-IL [6]; [11]): 13300 µM

Compound: Man(EG3MTzproNCOBisphe-OGal)4 [G19]
- Kd (PA-IL [5]; [10]): 0.046 µM
- IC50 (PA-IL [6]; [11]): 68900 µM

Compound: Man(EG3MTzproNCONapht-OGal)4 [G23]
- Kd (PA-IL [5]; [10]): 0.048 µM
- IC50 (PA-IL [6]; [11]): 68000 µM

Compound: Man(HexTzM-Gal)4 [compound 18]
- binding to PA-IL on microarray (PA-IL [7]): high binding
- IC50 (PA-IL [6]; [12]): 107 µM
- Potency vs EG3-O-Gal (PA-IL [6]): 21
- Potency vs AcNPhe-O-Gal (PA-IL [6]): 6.7

Compound: Man(POEG2MTzAcNPhe-O-Gal)4 [compound 32]
- Kd (PA-IL [5]; [13]): 0.083 µM
- IC50 (PA-IL [6]; Table 6, DNA-galactomimetics, lactose as inhibitor, read-out: microarray IC50Lac): 4220 µM
- β (PA-IL [6]): 264
- IC50 (PA-IL [6]; [12]): 4220 µM
- Potency vs EG3-O-Gal (PA-IL [6]): 844
- Potency vs AcNPhe-O-Gal (PA-IL [6]): 264

Compound: Man(POEG2MTzEG3-Gal)4 [compound 36]
- IC50 (PA-IL [6]; [12]): 24 µM
- Potency vs EG3-O-Gal (PA-IL [6]): 4.8
- Potency vs AcNPhe-O-Gal (PA-IL [6]): 1.5

Compound: Man(POProTzAcNPhe-O-Gal)4 [17d]
- Kd (PA-IL [5]; [13]): 0.196 µM
- binding to PA-IL on microarray (PA-IL [7]): high binding
- β (PA-IL [6]): 177
- Potency vs EG3-O-Gal (PA-IL [6]): 565
- Potency vs AcNPhe-O-Gal (PA-IL [6]): 177
